Measurements: paper PMC1197287 (PLoS Biology, 2005)

Assays:
HCoV-229E M^pro = target: T1, HCoV-229E M^pro (Human coronavirus 229E, UniProt P0C6X1); assay: biochemical
T1 construct: HCoV-229E M^pro (15 mg/ml; two amino acids deleted at C-terminal); made in house

TGEV M^pro = TGEV M^pro (Porcine transmissible gastroenteritis coronavirus, UniProt P0C6Y5); assay: biochemical
FIPV M^pro = FIPV M^pro (Feline coronavirus, UniProt Q98VG9); assay: biochemical; settings: pH 7.3, read-out: kobs/[I]
MHV M^pro = MHV M^pro (Murine coronavirus, UniProt P0C6X9); assay: biochemical; settings: pH 7.3, read-out: kobs/[I]
Chain of MHV M^pro (P0C6X9 3334-3635): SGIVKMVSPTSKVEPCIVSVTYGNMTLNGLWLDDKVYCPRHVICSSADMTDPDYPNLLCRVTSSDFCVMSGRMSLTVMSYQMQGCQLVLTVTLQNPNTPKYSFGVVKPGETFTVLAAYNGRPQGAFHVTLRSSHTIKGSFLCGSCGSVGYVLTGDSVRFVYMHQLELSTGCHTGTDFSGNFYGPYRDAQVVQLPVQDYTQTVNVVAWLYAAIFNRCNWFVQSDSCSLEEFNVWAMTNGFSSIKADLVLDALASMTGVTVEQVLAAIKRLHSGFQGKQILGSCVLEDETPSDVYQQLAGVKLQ

IBV M^pro = IBV M^pro (Avian infectious bronchitis virus, UniProt P0C6Y3); assay: biochemical
Chain of IBV M^pro (P0C6Y3 2782-3088): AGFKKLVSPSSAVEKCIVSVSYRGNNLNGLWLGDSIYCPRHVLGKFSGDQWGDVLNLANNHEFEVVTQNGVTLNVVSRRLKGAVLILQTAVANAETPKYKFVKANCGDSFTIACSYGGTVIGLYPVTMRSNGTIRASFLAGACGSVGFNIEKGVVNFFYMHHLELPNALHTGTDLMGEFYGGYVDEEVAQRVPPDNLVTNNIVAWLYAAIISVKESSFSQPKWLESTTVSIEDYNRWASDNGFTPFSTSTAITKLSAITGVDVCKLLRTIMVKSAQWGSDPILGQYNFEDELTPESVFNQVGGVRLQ

CoV M^pros = assay type: biochemical
SARS-CoV M^pro = SARS-CoV M^pro (Severe acute respiratory syndrome coronavirus, UniProt P0C6X7); assay: biochemical
M^pro of HCoV-NL63 = M^pro of HCoV-NL63 (Human coronavirus NL63, UniProt P0C6X5); assay type: biochemical
Chain of M^pro of HCoV-NL63 (P0C6X5 2940-3242): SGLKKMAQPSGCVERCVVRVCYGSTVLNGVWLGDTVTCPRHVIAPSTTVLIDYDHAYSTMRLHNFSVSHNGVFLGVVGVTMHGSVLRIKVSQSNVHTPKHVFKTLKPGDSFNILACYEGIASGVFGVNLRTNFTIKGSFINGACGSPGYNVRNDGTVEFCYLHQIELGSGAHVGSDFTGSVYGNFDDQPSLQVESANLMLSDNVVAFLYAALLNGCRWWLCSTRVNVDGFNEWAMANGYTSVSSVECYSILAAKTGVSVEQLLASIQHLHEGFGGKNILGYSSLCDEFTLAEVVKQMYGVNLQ

M^pro of HCoV-HKU1 = M^pro of HCoV-HKU1 (Human coronavirus HKU1, UniProt P0C6X2); assay type: biochemical
Chain of M^pro of HCoV-HKU1 (P0C6X2 3335-3637): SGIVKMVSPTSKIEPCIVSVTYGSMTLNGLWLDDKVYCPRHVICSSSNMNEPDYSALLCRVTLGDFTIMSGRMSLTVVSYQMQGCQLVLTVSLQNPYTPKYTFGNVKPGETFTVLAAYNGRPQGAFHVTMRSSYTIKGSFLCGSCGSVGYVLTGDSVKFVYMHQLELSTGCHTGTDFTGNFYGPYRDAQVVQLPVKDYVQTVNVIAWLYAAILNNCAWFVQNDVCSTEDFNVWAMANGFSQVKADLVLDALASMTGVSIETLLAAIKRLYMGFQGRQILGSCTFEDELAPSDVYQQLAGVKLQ

HCoV-229E = assay: microbe, parasite or virus in culture; assay type: cell-based; settings: Human coronavirus 229E, MRC5, 14 h
FIPV = assay: microbe, parasite or virus in culture; assay type: cell-based, FIPV (strain 79–1146); settings: Alphacoronavirus 1, 14 h
MHV-A59 [1] = assay: organism not typed; assay type: cell-based; settings: 14 h
MHV-A59 [2] = assay: MHV-A59 plaque-reduction assay in DBT cells; assay type: cell-based
Experimental: Murine DBT cells (generously provided by Dr. Lishan Su of University of North Carolina) were cultured in Dulbecco's modified Eagle's medium supplemented with 10% fetal bovine serum (FBS) and antibiotics at 37 °C in 5% CO2.
DBT cells were suspended in growth medium in triplicate wells in 6-well plates and preincubated with appropriate concentrations of the inhibitor. The next day, the medium was aspirated, and MHV-A59 was added to each well at a titer of 100 PFU/well. After incubation for 1 h, the virus inoculum was aspirated, and 2 ml of a media-agar overlay with appropriate concentrations of inhibitor was added to each well. The plates were further incubated for 24 h and stained with neutral red to visualize plaques.

DBT cells = assay: Cytotoxicity assay (MTT); assay type: cell-based, murine; settings: 500 μM, two days
Experimental: DBT cells were suspended in growth medium in 96-well plates. The next day, appropriate concentrations of the inhibitor were added to the medium. Two days later, the relative numbers of surviving cells were measured by MTT (Sigma, St. Louis, Missouri, United States) assay in accordance with the manufacturer's instructions.

SARS-CoV = settings: cell-based assays; data to be published elsewhere
TGEV = assay: Cell-based assay of TGEV replication; settings: cell-based assays; data to be published elsewhere
CoVs = settings: cited from earlier work
[3] = set-up: method as in PMID 14638501, PMID 11796347; settings: cited from earlier work
[4] = set-up: method as in PMID 14638501, PMID 11796347; settings: in animals; cited from earlier work
rhinovirus = test system: rhinovirus; set-up: method as in PMID 14638501, PMID 11796347; settings: intranasal suspension; cited from earlier work
[5] = set-up: method as in PMID 14638501, PMID 11796347; settings: cited from earlier work; remark: listed apart in the source

T1 sequence (P0C6X1 2966-3265 limits assumed): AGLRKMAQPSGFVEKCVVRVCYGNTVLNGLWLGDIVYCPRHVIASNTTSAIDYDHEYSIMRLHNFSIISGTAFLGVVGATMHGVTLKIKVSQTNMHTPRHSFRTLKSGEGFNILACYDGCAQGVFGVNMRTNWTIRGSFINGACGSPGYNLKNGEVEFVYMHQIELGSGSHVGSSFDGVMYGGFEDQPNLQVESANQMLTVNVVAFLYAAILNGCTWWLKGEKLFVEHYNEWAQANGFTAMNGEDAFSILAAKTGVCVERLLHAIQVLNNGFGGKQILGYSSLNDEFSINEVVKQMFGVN
Chain of TGEV M^pro (P0C6Y5 2879-3180): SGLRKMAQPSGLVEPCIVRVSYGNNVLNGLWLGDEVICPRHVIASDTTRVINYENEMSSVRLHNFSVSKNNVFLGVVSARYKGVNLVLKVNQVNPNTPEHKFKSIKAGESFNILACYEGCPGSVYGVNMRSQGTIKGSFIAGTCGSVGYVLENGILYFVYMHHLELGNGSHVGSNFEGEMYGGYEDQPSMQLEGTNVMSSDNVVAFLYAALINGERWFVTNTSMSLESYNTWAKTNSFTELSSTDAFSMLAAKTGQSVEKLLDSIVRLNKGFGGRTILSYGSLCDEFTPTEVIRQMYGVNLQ
Chain of FIPV M^pro (Q98VG9 2904-3205): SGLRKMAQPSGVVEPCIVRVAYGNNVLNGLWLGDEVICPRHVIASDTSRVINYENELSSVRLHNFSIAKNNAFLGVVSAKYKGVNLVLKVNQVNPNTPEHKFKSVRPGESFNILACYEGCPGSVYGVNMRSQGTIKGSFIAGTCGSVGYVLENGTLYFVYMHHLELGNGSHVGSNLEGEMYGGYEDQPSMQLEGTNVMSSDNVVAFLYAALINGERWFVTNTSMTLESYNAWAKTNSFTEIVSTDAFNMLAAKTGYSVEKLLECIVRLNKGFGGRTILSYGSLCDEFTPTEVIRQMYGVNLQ

Question: Which Ki (HCoV-229E M^pro) does the source give for `CCOC(=O)/C=C/[C@H](C[C@@H]1CCNC1=O)NC(=O)[C@H](CC(C)C)NC(=O)[C@@H](NC(=O)[C@H](C)NC(=O)c1cc(C)on1)C(C)C` [N1] here?
Answer: 1.11 ± 0.09 µM

Question: What about the k3 (HCoV-229E M^pro) of the same molecule?
Answer: 14.8 ± 0.7 × 10^−3s^−1

Question: And the Ki (TGEV M^pro)?
Answer: 3.2 ± 0.2 µM

Question: And the k3 (TGEV M^pro)?
Answer: 50 ± 3 × 10^−3s^−1

Question: What about the kinact/KI (FIPV M^pro) of the same molecule?
Answer: 24000 M⁻¹ s⁻¹

Question: And the kinact/KI (MHV M^pro)?
Answer: 2800 M⁻¹ s⁻¹

Question: What about the Ki (IBV M^pro) of the same molecule?
Answer: 3.9 ± 0.9 µM

Question: And the k3 (IBV M^pro; IBV M^pro, inactivation rate constant)?
Answer: 14.5 ± 1.2 × 10^−3s^−1

Question: What about the “in vitro inactivation of all CoV M^pros tested” value (CoV M^pros) of the same molecule?
Answer: fast in vitro inactivation

Question: And the “k3, range over CoV M^pros” value (CoV M^pros)?
Answer: 4.1–50 × 10^−3s^−1

Question: And the Ki (CoV M^pros; read-out: Ki, range over CoV M^pros)?
Answer: 1.11 to 10.7 µM

Question: What does the source list for `Cc1cc(C(=O)N[C@@H](C)C(=O)N[C@H](C(=O)N[C@@H](CC(C)C)C(=O)N[C@H](/C=C/C(=O)OCc2ccccc2)C[C@@H]2CCNC2=O)C(C)C)no1` [N3]?
Answer: Ki (HCoV-229E M^pro): 1.67 ± 0.18 µM; k3 (HCoV-229E M^pro): 18.0 ± 1.1 × 10^−3s^−1; kinact/KI (TGEV M^pro; pH 7.3, read-out: kobs/[I]): 13000 M⁻¹ s⁻¹; kinact/KI (FIPV M^pro): 47000 M⁻¹ s⁻¹; kinact/KI (MHV M^pro): 4800 M⁻¹ s⁻¹; Ki (SARS-CoV M^pro): 9 ± 0.8 µM; k3 (SARS-CoV M^pro): 3.1 ± 0.5 × 10^−3s^−1; kinact/KI (IBV M^pro; pH 7.3, read-out: kobs/[I]): 7900 M⁻¹ s⁻¹; in vitro inactivation of all CoV M^pros tested (CoV M^pros): fast in vitro inactivation; inhibition on M^pro of HCoV-NL63 (M^pro of HCoV-NL63): potent inhibition; inhibition on M^pro of HCoV-HKU1 (M^pro of HCoV-HKU1): potent inhibition; IC50 (HCoV-229E): 4 µM; IC50 (FIPV): 8.8 µM; IC50 (MHV-A59 [1]): 2.7 µM; protection of DBT cells from MHV infection (MHV-A59 [2]; 8 μM N3): sufficiently protected; EC50 (MHV-A59 [2]; DBT cells, low-multiplicity (MOI = 0.01)): 3.4 µM; inhibition of cell growth (DBT cells): 28.3%; inhibition of replication of SARS-CoV (SARS-CoV): strongly inhibit; inhibition of replication of TGEV (TGEV): strongly inhibit

Question: What does the source list for `CCOC(=O)/C=C/[C@H](C[C@@H]1CCNC1=O)NC(=O)[C@@H](CC(=O)[C@@H](NC(=O)c1cc(C)on1)C(C)C)Cc1ccc(F)cc1` [Ruprintrivir, ruprintrivir]?
Answer: inhibition of CoVs (CoVs): did not show inhibition; aqueous solubility [3]: poor; oral bioavailability [4]: low; effect of prophylaxis in Phase II studies (rhinovirus): reduced the proportion of subjects with positive viral cultures and viral titers; most common adverse effects [5]: blood-tinged mucus and nasal passage irritation; tolerability [5]: well tolerated
